Assay results from publication PMC8583417, “Evaluation of the Antimicrobial Efficacy of N-Acetyl-L-Cysteine, Rhamnolipids, and Usnic Acid—Novel Approaches to Fight Food-Borne Pathogens” (International Journal of Molecular Sciences, 2021).

Key:
E. coli 683/17 [1] = test: MIC for biofilm formation (crystal violet staining); type: cell-based, Escherichia coli; settings: for MICBF80: ≥80% prevention, 24 h
Method: (§1) Ten concentrations of NAC, RLs, and UA were tested to determine the minimum inhibitory concentration for planktonic growth, and subsequently, the six highest concentrations were applied on preformed biofilms to evaluate the biofilm eradication ability of the compounds. MIC was defined as the lowest substance concentration able to inhibit at least 80% of microbial growth (MICPC80 for planktonic cells, MICBC80 for further growth of biofilm cells), inhibit 80% of metabolic activity (MICBM80 for biofilm metabolic activity, MICMPB80 for metabolic activity of preformed biofilm), prevent biofilm formation by at least 80% (MICBF80 for biofilm formation), or reduce a preformed biofilm by at least 80% (MICBR80 for biofilm reduction). The results of MICs are summarized in Table 1 (planktonic cells) and Table 2 (biofilm-associated cells).
(§2) The determination of MICs was performed according to Chlumsky et al.. Briefly, 96-well flat-bottomed microtiter plates were inoculated with 75 µL (for biofilm formation) or 100 µL (for preformed biofilm) of bacterial suspension (A625nm 0.08 to 0.1) in technical triplicates and were then carefully mixed with the dilution series of the test substances (24 h cultivation at 25 °C for S. Infantis, 37 °C for other strains) or were directly cultivated to preform biofilms (18 h). For a positive control of bacterial growth, the inoculum was mixed with a pure sterile medium. Furthermore, the sterile medium was included in the plate as a marker of potential microbial contamination. To evaluate planktonic cells growth (MICPC80) and further growth of biofilm cells (MICBC80), the optical density of the content of the microtiter plates was measured spectrophotometrically at 625 nm before and after 24 h (for biofilm formation) of cultivation or before and after additional 20 h incubation with the tested compound (for preformed biofilm). The difference of A625nm was considered as a measure of the ability of cells to grow in the presence of the tested substances. To evaluate the inhibition of biofilm formation (MICBF80) and reduction in preformed biofilms (MICBR80), biomass was quantified using crystal violet staining, and its metabolic activity (MICBM80 and MICMPB80) was estimated by using the MTT (thiazyl tetrazolium bromide, Sigma-Aldrich, USA) reduction assay, both measured spectrophotometrically at 595 nm.
(§3) All inhibitions were calculated using the formula of Chlumsky et al. below (Equation (1)):(1) A625(595)nm inhibition (%)=A625(595)nm (control) – A625(595)nm(natural substance)/A625(595)nm (control)× 100 where A625(595)nm (control) is the absorbance of bacterial suspension/biofilm itself, and A625(595)nm(natural substance) is the absorbance of the bacterial suspension/biofilm with the added natural substance (NAC, RLs, and UA).
(§4) When the minimum inhibitory concentration could not be determined, the MIC was established as >the highest tested concentration for NAC, RLs, and UA.

E. coli 693/17 [2] = test: as above; type: cell-based, Escherichia coli; settings: for MICBF80: ≥80% prevention, 24 h
Method: as §1, §2, §3, §4

E. coli 683/17 [3] = test: MIC for biofilm metabolic activity (MTT reduction assay); type: cell-based, Escherichia coli; settings: for MICBM80: ≥80% inhibition, 24 h
Method: as §1, §2, §3, §4

E. coli 693/17 [4] = test: as above; type: cell-based, Escherichia coli; settings: for MICBM80: ≥80% inhibition, 24 h
Method: as §1, §2, §3, §4

[5] = test system: S. Enteritidis ATCC 13076; test: MIC for reduction of preformed biofilm (crystal violet staining); type: cell-based, Salmonella enterica Enteritidis; settings: for MICBR80: ≥80% reduction of preformed biofilm (18 h), 20 h with substance
Method: as §1
The determination of MICs was performed according to Chlumsky et al.. […] To evaluate planktonic cells growth (MICPC80) and further growth of biofilm cells (MICBC80), the optical density of the content of the microtiter plates was measured spectrophotometrically at 625 nm before and after 24 h (for biofilm formation) of cultivation or before and after additional 20 h incubation with the tested compound (for preformed biofilm). […] To evaluate the inhibition of biofilm formation (MICBF80) and reduction in preformed biofilms (MICBR80), biomass was quantified using crystal violet staining, and its metabolic activity (MICBM80 and MICMPB80) was estimated by using the MTT (thiazyl tetrazolium bromide, Sigma-Aldrich, USA) reduction assay, both measured spectrophotometrically at 595 nm.
as §3, with “UA). […]” for “UA).”

L. monocytogenes 149 = test: CLSM analysis, biofilm removal (preformed biofilm); type: cell-based, Listeria monocytogenes; settings: 20 h exposure, mean ± SD; for Thickness (µm) MICBM80: substance at its MIC; for Thickness (µm) subCBM80: substance at subinhibitory concentration
Method: (§5) Biofilm prevention and removal analyses were performed using previously determined minimum inhibitory and subinhibitory concentrations for metabolic activity (MICBM80, subCBM80; MICMPB80, subCMPB80) of NAC, RLs, and UA specific for each tested strain. Selected concentrations were used to evaluate the inhibition of biofilm formation (biofilm prevention) and the reduction in previously formed biofilms (biofilm removal) for the same set of microorganisms, with the exception of S. Infantis, which was excluded from the analysis due to its inability to form biofilm in the selected microtiter plate. Biofilm prevention and removal were observed using CLSM with specific staining to distinguish between live and membrane-compromised cells. Images were analyzed to evaluate (i). the total volume of the biomass, (ii). ratios of live and membrane-compromised cells, and (iii). to calculate biofilm volume reduction for individual organisms after the respective treatment types. The total biofilm volume was normalized by the area of the well and expressed as an average biofilm thickness. Complete data are provided in Supplementary Materials (Tables S1–S8).
(§6) At first, bacterial suspensions were cultivated in microtiter plates to produce overnight biofilms (18 h). […] cells were then washed out, and the remaining biofilms were further cultivated for an additional 20 h with selected compounds. Following biofilm cultivation, biomass was observed using CLSM with live/membrane-compromised cell staining. Biomass images from biofilm removal treatments were similar to results from biofilm prevention, where biomass was highly diversified across the bacterial species and strains. Visually, biomass images were fairly consistent within the quadruplicates for each tested organism. Non-treated biofilms of S. aureus contained consistent biomass spread across the well (S. aureus 816) or grown around the edges (S. aureus 1241). […] PI staining identified membrane-compromised cells spread across S. aureus 816 biomass and incorporated in the edge of biomass and/or in the central part of the well (Figure 4B,C). […] Membrane-compromised cells appeared contained around the edges (S. aureus 1241), disturbed across the well (in both strains of L. monocytogenes), or in separated biomass in the central part of the well (in both strains of E. coli when treated with the subinhibitory concentration of RLs) (Figure 4D,E).
(§7) For both inhibition and reduction of biofilms, overnight cultures from BHI were diluted in TSB + 1% Glc to reach an absorbance of 0.08 to 0.1 at 625 nm. The inoculum (150 µL) was transferred into wells of the 96-well flat-bottomed Ibidiμ-Plate (Ibidi, Gräfelfing, Germany) and mixed with 150 µL of each of the three tested substances in technical quadruplicates, followed by incubation at 37 °C for 24 h. Simultaneously, the prepared bacterial suspensions were inoculated to an additional microtiter plate (200 µL) and allowed to form biofilm overnight (18 h at 37 °C). After the incubation, the content of the well was drained off, and 200 µL of each of the three tested substances was added to the plate, which was then incubated for an additional 20 h. The used concentrations of the substances represented the subinhibitory and minimum inhibitory concentrations for metabolic activity (subCBM80, MICBM80; subCMPB80, MICMPB80). Both setups contained a positive control of the bacterial growth (inoculum mixed with sterile TSB + 1% Glc medium) and a control monitoring microbial contamination (sterile medium). Non-treated wells were used as a positive control for comparison between non-treated and treated biofilm mass.
(§8) Prior to the imaging, the wells were stained with the LIVE/DEAD® BacLight™ Bacterial Viability Kit (Thermo Fisher Scientific, MA, USA) following the manufacturer’s guidelines and Drago et al.. […]

L. monocytogenes 164 = test: CLSM analysis, biofilm removal (preformed biofilm); type: cell-based, Listeria monocytogenes; settings: for Thickness (µm) MICBM80: substance at its MIC
Method: as §5, §6, §7, §8

[6] = preformed biofilm, 20 h exposure, mean ± SD

Compound: CC(=O)N[C@@H](CS)C(=O)O [NAC, N-Acetyl-L-cysteine]
- MICBF80 (E. coli 683/17 [1]): 6250 µg/mL
- MICBF80 (E. coli 693/17 [2]): 6250 µg/mL
- MICBM80 (E. coli 683/17 [3]): 6250 µg/mL
- MICBM80 (E. coli 693/17 [4]): 6250 µg/mL
- MICBR80 [5]: 12,500 µg/mL
- Thickness (µm) MICBM80 (L. monocytogenes 149): 338 ± 85.7 µm
- Thickness (µm) subCBM80 (L. monocytogenes 149): 332 ± 51.2 µm
- proportion of membrane-compromised cells (L. monocytogenes 164; 20 h, MIC and subinhibitory concentration): up to 20%
- Thickness (µm) MICBM80 (L. monocytogenes 164; [6]): 345 ± 62 µm
- Thickness (µm) subCBM80 (L. monocytogenes 164; preformed biofilm, 20 h exposure, substance at subinhibitory concentration, mean ± SD): 335 ± 23.1 µm

Compound: CC(=O)c1c(O)c(C)c(O)c2c1OC1=CC(=O)C(C(C)=O)C(=O)C12C (single isomer, unassigned; (+)) [UA, (+)-usnic acid]
- maximal achieved inhibition (MICBF80 not reached) (E. coli 683/17 [1]; within tested concentrations): 10%
- MICBF80 (E. coli 683/17 [1]): > 31.3 µg/mL
- maximal achieved inhibition (MICBF80 not reached) (E. coli 693/17 [2]; within tested concentrations): 47%
- MICBF80 (E. coli 693/17 [2]): > 31.3 µg/mL
- maximal achieved inhibition (MICBM80 not reached) (E. coli 683/17 [3]; within tested concentrations): 27%
- MICBM80 (E. coli 683/17 [3]): > 31.3 µg/mL
- maximal achieved inhibition (MICBM80 not reached) (E. coli 693/17 [4]; within tested concentrations): 16%
- MICBM80 (E. coli 693/17 [4]): > 31.3 µg/mL
- maximal achieved inhibition (MICBR80 not reached), biofilm reduction ([5]; preformed biofilm, within tested concentrations): 0%
- MICBR80 [5]: > 31.3 µg/mL
- Thickness (µm) MICBM80 (L. monocytogenes 149): 317 ± 62.3 µm
- Thickness (µm) subCBM80 (L. monocytogenes 149): 276 ± 26.8 µm
- Thickness (µm) MICBM80 (L. monocytogenes 164; [6]): 440 ± 60.8 µm
